# Assay results as given in PMC10349806 (Nature Communications, 2023).
# Values joined by “and” are separate entries in the source; they are usually repeats but may differ in a detail not shown here. Identical values can stand only once.
# Biological target: PfCRT^Dd2 (Plasmodium falciparum, UniProt Q9N623, A220S/I356T/K76T/M74I/N326S/N75E/Q271E/R371I)
# Test: Drug uptake assay, X. laevis oocytes expressing PfCRT^Dd2
# Assay type: cell-based
# Conditions: for v-1 pH 4.5 / v-1 pH 5.0 / v-1 pH 5.5 / v-1 pH 6.0: Lineweaver-Burk
# Protocol: Oocytes were obtained as described previously. Briefly, adult (>2 years old) female X. laevis frogs (NASCO) were anesthetized in a cooled solution of ethyl 3-amino benzoate methanesulfonate (0.1%, w/v), followed by a surgical removal of parts of the ovary. The ovary lobes were carefully dissected and small pieces of oocytes were incubated in Ca^2+-free ND96 buffer (96 mM NaCl, 2 mM KCl, 1 mM MgCl2 buffered with 5 mM HEPES/NaOH, pH 7.5) supplemented with collagenase D (0.1%, w/v; Roche), BSA (0.5%, w/v), and 9 mm Na2HPO4 at 18 °C for 14-16 h while gentle shaking. After incubation, the oocytes were carefully washed several times with ND96 buffer (96 mM NaCl, 2 mM KCl, 1.8 mM CaCl2, 1 mM MgCl2 buffered with 5 mM HEPES/NaOH, pH 7.5) supplemented with 100 mg l^−1 gentamycin). Defolliculated and healthy-looking stage V-VI oocytes were manually selected for RNA microinjection. The RNA was generated as following: The codon-optimized sequences of PfCRT variants were cloned into the pSP64T expression vector. After vector linearization using the restriction endonucleases BamHI or SalI (New England Biolabs), transcription was performed using the in vitro SP6 mMessage mMachine Kit (Ambion)[34]. The obtained RNA was kept at −80 °C and diluted with nuclease-free water to a concentration of 0.6 μg μl^−1. Precision-bore glass capillary tubes (3.5-inch glass capillaries; Drummond Scientific Co.) were pulled on a vertical puller (P-87 Flaming/Brown micropipette puller, Sutter Instrument Co.), graduated, and placed on a microinjector (Nanoject II Auto-Nanoliter Injector, Drummond Scientific Co.). 50 nl of nuclease-free water alone (control oocytes) or 50 nl of 0.6 μg μl^−1 RNA were injected under stereomicroscopic control. Injected oocytes were incubated for 46–72 h at 18 °C with twice-daily buffer changes before usage in experiments.
# Drug uptake assays were performed as described previously[21],[22],[24],[34]. […] The direction of radio-labeled drug transport is here from the mostly acidic extracellular solution (pH 4.5 or 6.0, as indicated) into the oocyte cytosol (pH ∼ 7.2), which corresponds to the efflux of drug from the acidic digestive vacuole (pH 5.2) into the parasite cytoplasm (pH 7.2). The topology of PfCRT in the oolemma is such that both the N- and C-terminus face the extracellular milieu[3],[22]. In the parasite, the N- and C-terminus face the lumen of the digestive vacuole. […] For determination of the amount of drug uptake for each oocyte, the reaction medium was removed and the oocytes were washed three times with 2 ml of ice-cold ND96 buffer. Each oocyte was individually transferred to a scintillation vial containing 5% sodium dodecyl sulfate (200 μl) for lysis. […] Oocytes that were injected with water instead of RNA were analyzed in parallel, representing the uptake of a drug by diffusion and/or endogenous permeation pathways. The resulting value represents the “background“ level of drug accumulation in oocytes (in-depth discussion in[22]). The specific PfCRT-mediated uptake was determined by subtracting the corresponding background value measured in water-injected oocytes from that of PfCRT-expressing oocytes. In all cases, at least three separate experiments were performed on oocytes from different frogs (biological replicate), and for each condition in an experiment, measurements were made from 10 oocytes per treatment. For pH 5.5, 6.0, and 6.5, ND96 was buffered with 5 mM MES/Tris base. For pH 4.5, 5 mM Homo-Pipes was used as a buffer and 5 mM HEPES for uptake at pH 7.0.
# Chain of PfCRT^Dd2 (Q9N623 whole entry A220S/I356T/K76T/M74I/N326S/N75E/Q271E/R371I): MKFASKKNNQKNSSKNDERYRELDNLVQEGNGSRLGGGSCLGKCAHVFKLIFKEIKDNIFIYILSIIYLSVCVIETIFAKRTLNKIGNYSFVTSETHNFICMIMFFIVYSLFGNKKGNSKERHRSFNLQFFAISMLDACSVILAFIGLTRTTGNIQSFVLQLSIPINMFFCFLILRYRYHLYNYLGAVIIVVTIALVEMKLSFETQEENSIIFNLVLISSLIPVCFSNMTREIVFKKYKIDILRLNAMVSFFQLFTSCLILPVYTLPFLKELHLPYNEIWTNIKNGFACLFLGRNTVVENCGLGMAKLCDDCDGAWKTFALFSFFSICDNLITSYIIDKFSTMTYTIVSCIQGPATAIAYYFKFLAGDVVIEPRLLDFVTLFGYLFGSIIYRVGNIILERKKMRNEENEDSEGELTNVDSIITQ
compound,measurement,setting,value
"CCN(CC)CCCC(C)Nc1ccnc2cc(Cl)ccc12 (centres unmarked) [CQ, chloroquine]",PfCRTDd2-mediated CQ transport activity,"300 µM CQ, time 90 min",21.08 pmol oocyte-1
same,v-1 pH 4.5,300 µM CQ,0.11 (pmol oocyte-1 h-1)-1
same,v-1 pH 5.0,300 µM CQ,0.09 (pmol oocyte-1 h-1)-1
same,v-1 pH 5.5,300 µM CQ,0.08 (pmol oocyte-1 h-1)-1
same,v-1 pH 6.0,300 µM CQ,0.0649 (pmol oocyte-1 h-1)-1
same,PfCRTDd2 transport activity,"400 µM CQ, pH 4.5, 60 min",9.19 pmol oocyte-1 h-1 and 9.21 pmol oocyte-1 h-1 and 9.15 pmol oocyte-1 h-1 and 10.13 pmol oocyte-1 h-1 and 7.52 pmol oocyte-1 h-1 and 9.96 pmol oocyte-1 h-1
same,PfCRTDd2 transport activity,"400 µM CQ, pH 5.0, 60 min",11.32 pmol oocyte-1 h-1
same,PfCRTDd2 transport activity 400 µM CQ pH 5.0,"400 µM CQ, pH 5.0, individual replicates (Fig 4a)",11.40 pmol oocyte-1 h-1 and 11.89 pmol oocyte-1 h-1 and 10.67 pmol oocyte-1 h-1
same,PfCRTDd2 transport activity,"400 µM CQ, pH 5.5, 60 min",13.77 pmol oocyte-1 h-1
same,PfCRTDd2 transport activity 400 µM CQ pH 5.5,"400 µM CQ, pH 5.5, individual replicates (Fig 4a)",14.89 pmol oocyte-1 h-1 and 13.71 pmol oocyte-1 h-1 and 13.31 pmol oocyte-1 h-1
same,PfCRTDd2 transport activity,"400 µM CQ, pH 6.0, 60 min",19.62 pmol oocyte-1 h-1 and 19.38 pmol oocyte-1 h-1 and 19.10 pmol oocyte-1 h-1 and 20.37 pmol oocyte-1 h-1
same,PfCRTDd2 transport activity 400 µM CQ pH 6.0,"400 µM CQ, pH 6.0, individual replicates (Fig 4a)",19.38 pmol oocyte-1 h-1 and 19.10 pmol oocyte-1 h-1 and 20.37 pmol oocyte-1 h-1
same,PfCRTDd2-mediated CQ transport activity,"400 µM CQ, time 0 min",0.00 pmol oocyte-1
same,PfCRTDd2-mediated CQ transport activity,"400 µM CQ, time 30 min",11.37 pmol oocyte-1
same,PfCRTDd2-mediated CQ transport activity,"400 µM CQ, time 60 min",18.93 pmol oocyte-1
same,PfCRTDd2-mediated CQ transport activity,"400 µM CQ, time 90 min",23.37 pmol oocyte-1
same,v-1 pH 4.5,400 µM CQ,0.11 (pmol oocyte-1 h-1)-1
same,v-1 pH 5.0,400 µM CQ,0.09 (pmol oocyte-1 h-1)-1
same,v-1 pH 5.5,400 µM CQ,0.07 (pmol oocyte-1 h-1)-1
same,v-1 pH 6.0,400 µM CQ,0.05 (pmol oocyte-1 h-1)-1
same,PfCRTDd2 transport activity,"500 µM CQ, pH 4.5, 60 min",9.38 pmol oocyte-1 h-1 and 9.85 pmol oocyte-1 h-1 and 9.73 pmol oocyte-1 h-1 and 10.40 pmol oocyte-1 h-1 and 7.53 pmol oocyte-1 h-1
same,PfCRTDd2 transport activity 500 µM CQ pH 4.5,"500 µM CQ, pH 4.5, individual replicates (Fig 4a)",9.85 pmol oocyte-1 h-1 and 9.73 pmol oocyte-1 h-1 and 10.40 pmol oocyte-1 h-1 and 7.53 pmol oocyte-1 h-1
same,PfCRTDd2 transport activity,"500 µM CQ, pH 5.0, 60 min",11.35 pmol oocyte-1 h-1
same,PfCRTDd2 transport activity 500 µM CQ pH 5.0,"500 µM CQ, pH 5.0, individual replicates (Fig 4a)",12.28 pmol oocyte-1 h-1
same,PfCRTDd2 transport activity,"500 µM CQ, pH 5.5, 60 min",14.75 pmol oocyte-1 h-1
same,PfCRTDd2 transport activity 500 µM CQ pH 5.5,"500 µM CQ, pH 5.5, individual replicates (Fig 4a)",14.32 pmol oocyte-1 h-1 and 15.56 pmol oocyte-1 h-1 and 14.38 pmol oocyte-1 h-1 and 14.75 pmol oocyte-1 h-1
same,PfCRTDd2 transport activity,"500 µM CQ, pH 6.0, 60 min",20.73 pmol oocyte-1 h-1 and 20.81 pmol oocyte-1 h-1 and 20.59 pmol oocyte-1 h-1 and 20.78 pmol oocyte-1 h-1
same,PfCRTDd2 transport activity 500 µM CQ pH 6.0,"500 µM CQ, pH 6.0, individual replicates (Fig 4a)",20.81 pmol oocyte-1 h-1 and 20.59 pmol oocyte-1 h-1 and 20.78 pmol oocyte-1 h-1
same,PfCRTDd2-mediated CQ transport activity,"500 µM CQ, time 0 min",0.00 pmol oocyte-1
same,PfCRTDd2-mediated CQ transport activity,"500 µM CQ, time 30 min",18.55 pmol oocyte-1
same,PfCRTDd2-mediated CQ transport activity,"500 µM CQ, time 60 min",25.91 pmol oocyte-1
same,PfCRTDd2-mediated CQ transport activity,"500 µM CQ, time 90 min",27.18 pmol oocyte-1
same,v-1 pH 4.5,500 µM CQ,0.11 (pmol oocyte-1 h-1)-1
same,v-1 pH 5.0,500 µM CQ,0.09 (pmol oocyte-1 h-1)-1
same,v-1 pH 5.5,500 µM CQ,0.07 (pmol oocyte-1 h-1)-1
